Data on five compounds can be found in ChEMBL document CHEMBL1201862, “PubChem BioAssay data set” (2004).

Assay [1] has as its target T1, Histone-lysine N-methyltransferase NSD2 (Homo sapiens, UniProt O96028).
T1 sequence (O96028 whole entry): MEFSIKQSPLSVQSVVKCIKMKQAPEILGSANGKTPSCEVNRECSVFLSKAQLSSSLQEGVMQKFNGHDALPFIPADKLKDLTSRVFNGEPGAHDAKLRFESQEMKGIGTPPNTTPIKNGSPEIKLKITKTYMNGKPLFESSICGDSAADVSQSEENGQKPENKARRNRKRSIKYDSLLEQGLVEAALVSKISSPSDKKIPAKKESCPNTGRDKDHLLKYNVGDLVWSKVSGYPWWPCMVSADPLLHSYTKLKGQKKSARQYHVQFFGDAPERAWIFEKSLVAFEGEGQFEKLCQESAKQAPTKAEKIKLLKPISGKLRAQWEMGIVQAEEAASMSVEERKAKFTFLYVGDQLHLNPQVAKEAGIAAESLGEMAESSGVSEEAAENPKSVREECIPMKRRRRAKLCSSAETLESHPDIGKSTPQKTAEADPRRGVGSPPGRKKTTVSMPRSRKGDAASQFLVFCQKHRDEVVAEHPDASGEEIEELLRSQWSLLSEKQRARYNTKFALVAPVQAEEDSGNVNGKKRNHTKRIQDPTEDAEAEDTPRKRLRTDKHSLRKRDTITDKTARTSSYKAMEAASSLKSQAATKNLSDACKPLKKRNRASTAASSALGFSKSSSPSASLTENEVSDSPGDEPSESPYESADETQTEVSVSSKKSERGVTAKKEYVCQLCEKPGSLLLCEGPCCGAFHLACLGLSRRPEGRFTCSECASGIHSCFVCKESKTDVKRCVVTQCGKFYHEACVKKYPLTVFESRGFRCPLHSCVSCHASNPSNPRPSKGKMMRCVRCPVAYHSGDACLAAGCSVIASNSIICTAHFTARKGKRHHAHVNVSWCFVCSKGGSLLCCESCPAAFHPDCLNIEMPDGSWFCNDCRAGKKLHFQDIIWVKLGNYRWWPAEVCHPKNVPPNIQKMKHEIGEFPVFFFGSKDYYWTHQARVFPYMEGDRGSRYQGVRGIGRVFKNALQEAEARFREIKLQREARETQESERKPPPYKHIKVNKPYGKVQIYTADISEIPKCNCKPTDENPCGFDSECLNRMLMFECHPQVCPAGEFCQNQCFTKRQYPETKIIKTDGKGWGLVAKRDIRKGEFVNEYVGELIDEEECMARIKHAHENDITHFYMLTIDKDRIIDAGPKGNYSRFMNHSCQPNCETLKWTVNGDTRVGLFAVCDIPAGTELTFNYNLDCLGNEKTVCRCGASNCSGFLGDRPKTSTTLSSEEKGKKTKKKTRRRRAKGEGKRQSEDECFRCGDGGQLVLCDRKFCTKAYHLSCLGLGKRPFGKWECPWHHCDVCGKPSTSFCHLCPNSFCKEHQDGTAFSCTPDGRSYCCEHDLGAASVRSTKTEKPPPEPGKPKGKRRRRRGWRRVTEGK
The class given is biochemical.

For assay [2], the target named is Dual specificity protein kinase CLK2 (Homo sapiens, UniProt P49760). The class given is functional.
For assay [3], the target named is Dual specificity mitogen-activated protein kinase kinase 1 (Homo sapiens, UniProt Q02750). Nature of the assay: Navigating the Kinome. Panel member name: MAP2K1. The class given is functional.
The target of assay [4] is Tyrosine-protein kinase JAK2 (Homo sapiens, UniProt O60674). Format: functional.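 Note: JAK2 tested as one member of a kinase panel.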
Assay [5] concerns the target T2, Serine/threonine-protein kinase D3 (Homo sapiens, UniProt O94806).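 Note: determined within a kinase panel screen, with PRKCN as the panel member.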
T2 sequence (O94806 whole entry): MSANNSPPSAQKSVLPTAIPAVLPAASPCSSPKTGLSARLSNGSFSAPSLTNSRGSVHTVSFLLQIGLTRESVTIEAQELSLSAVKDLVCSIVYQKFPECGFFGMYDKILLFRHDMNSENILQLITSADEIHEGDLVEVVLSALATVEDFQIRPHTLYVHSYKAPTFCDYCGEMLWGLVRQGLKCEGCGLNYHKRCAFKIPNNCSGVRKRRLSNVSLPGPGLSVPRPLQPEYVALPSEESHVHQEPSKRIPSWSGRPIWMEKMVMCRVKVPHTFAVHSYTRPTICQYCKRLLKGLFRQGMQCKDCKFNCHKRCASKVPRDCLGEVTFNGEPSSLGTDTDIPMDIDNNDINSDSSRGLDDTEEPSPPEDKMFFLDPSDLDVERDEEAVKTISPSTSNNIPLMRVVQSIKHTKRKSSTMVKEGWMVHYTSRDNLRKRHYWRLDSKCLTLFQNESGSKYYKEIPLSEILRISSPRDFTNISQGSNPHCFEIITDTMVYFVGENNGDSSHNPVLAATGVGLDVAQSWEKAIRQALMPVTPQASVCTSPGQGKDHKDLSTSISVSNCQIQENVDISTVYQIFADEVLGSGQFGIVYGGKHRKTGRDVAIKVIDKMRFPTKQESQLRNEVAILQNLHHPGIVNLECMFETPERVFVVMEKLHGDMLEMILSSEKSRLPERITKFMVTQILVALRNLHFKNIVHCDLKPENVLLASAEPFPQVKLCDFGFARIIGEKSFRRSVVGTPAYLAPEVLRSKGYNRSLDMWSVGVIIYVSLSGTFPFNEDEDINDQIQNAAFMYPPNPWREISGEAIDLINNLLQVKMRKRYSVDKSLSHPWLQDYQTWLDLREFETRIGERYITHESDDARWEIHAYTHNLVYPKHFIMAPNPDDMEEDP
The class given is functional.

Assay [6] addresses Activin receptor type-1 (Homo sapiens, UniProt Q04771). The experiment in a line: Navigating the Kinome. Panel member name: ACVR1. The class given is functional.
In assay [7] the target is Tyrosine-protein kinase JAK3 (Homo sapiens, UniProt P52333). Format: functional.
In assay [8] the target is Activated CDC42 kinase 1 (Homo sapiens, UniProt Q07912). The experiment in a line: Navigating the Kinome. Panel member name: ACK1. Format: functional.
Assay [9] addresses Serine/threonine-protein kinase Chk1 (Homo sapiens, UniProt O14757). The class given is functional.
The target in assay [10] is Vascular endothelial growth factor receptor 2 (Homo sapiens, UniProt P35968). Format: functional.
In assay [11] the target is Dual specificity tyrosine-phosphorylation-regulated kinase 1B (Homo sapiens, UniProt Q9Y463). The experiment in a line: Navigating the Kinome. Panel member name: DYRK1B. The class given is functional.
In assay [12] the target is Focal adhesion kinase 1 (Homo sapiens, UniProt Q05397). The class given is functional.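 Note: measured as one member of a kinome panel.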
In assay [13] the target is BDNF/NT-3 growth factors receptor (Homo sapiens, UniProt Q16620). The class given is functional.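 Note: NTRK2 measured as one member of a broad kinome-wide kinase profiling panel.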
Assay [14] concerns the target Dual specificity protein kinase CLK4 (Homo sapiens, UniProt Q9HAZ1). Format: functional.
In assay [15] the target is Dual specificity tyrosine-phosphorylation-regulated kinase 1A (Homo sapiens, UniProt Q13627). The class given is functional.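 Note: measured against DYRK1A as one member of a broad kinome profiling panel.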

Activity calls are given as the source filed them.

Sequence of Focal adhesion kinase 1 (Q05397 whole entry): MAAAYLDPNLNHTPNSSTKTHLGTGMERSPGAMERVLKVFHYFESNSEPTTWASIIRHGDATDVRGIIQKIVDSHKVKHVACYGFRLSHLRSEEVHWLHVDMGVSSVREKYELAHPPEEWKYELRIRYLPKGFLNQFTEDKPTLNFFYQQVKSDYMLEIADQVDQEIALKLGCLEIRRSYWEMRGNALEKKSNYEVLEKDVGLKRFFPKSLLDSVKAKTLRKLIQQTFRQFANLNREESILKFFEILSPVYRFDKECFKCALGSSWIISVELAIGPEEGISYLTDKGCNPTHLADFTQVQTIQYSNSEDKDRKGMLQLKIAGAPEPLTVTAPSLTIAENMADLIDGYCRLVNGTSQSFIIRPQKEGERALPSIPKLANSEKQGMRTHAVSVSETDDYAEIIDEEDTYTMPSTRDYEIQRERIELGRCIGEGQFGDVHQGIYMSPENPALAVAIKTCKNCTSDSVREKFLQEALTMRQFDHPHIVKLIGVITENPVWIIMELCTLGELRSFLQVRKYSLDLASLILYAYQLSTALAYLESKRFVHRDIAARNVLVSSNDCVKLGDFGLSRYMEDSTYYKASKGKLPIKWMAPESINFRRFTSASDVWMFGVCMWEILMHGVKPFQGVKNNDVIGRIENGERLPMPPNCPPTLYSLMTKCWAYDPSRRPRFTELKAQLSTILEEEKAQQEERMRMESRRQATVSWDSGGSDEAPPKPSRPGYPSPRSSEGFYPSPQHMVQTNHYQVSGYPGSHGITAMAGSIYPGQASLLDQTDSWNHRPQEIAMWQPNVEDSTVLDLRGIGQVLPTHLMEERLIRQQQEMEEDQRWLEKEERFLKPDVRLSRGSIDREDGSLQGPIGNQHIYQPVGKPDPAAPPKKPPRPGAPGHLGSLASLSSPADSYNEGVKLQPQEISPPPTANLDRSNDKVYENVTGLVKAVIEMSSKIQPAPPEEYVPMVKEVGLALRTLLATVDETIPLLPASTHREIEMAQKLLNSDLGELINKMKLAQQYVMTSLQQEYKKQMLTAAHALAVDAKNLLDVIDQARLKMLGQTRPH
Sequence of Vascular endothelial growth factor receptor 2 (P35968 whole entry): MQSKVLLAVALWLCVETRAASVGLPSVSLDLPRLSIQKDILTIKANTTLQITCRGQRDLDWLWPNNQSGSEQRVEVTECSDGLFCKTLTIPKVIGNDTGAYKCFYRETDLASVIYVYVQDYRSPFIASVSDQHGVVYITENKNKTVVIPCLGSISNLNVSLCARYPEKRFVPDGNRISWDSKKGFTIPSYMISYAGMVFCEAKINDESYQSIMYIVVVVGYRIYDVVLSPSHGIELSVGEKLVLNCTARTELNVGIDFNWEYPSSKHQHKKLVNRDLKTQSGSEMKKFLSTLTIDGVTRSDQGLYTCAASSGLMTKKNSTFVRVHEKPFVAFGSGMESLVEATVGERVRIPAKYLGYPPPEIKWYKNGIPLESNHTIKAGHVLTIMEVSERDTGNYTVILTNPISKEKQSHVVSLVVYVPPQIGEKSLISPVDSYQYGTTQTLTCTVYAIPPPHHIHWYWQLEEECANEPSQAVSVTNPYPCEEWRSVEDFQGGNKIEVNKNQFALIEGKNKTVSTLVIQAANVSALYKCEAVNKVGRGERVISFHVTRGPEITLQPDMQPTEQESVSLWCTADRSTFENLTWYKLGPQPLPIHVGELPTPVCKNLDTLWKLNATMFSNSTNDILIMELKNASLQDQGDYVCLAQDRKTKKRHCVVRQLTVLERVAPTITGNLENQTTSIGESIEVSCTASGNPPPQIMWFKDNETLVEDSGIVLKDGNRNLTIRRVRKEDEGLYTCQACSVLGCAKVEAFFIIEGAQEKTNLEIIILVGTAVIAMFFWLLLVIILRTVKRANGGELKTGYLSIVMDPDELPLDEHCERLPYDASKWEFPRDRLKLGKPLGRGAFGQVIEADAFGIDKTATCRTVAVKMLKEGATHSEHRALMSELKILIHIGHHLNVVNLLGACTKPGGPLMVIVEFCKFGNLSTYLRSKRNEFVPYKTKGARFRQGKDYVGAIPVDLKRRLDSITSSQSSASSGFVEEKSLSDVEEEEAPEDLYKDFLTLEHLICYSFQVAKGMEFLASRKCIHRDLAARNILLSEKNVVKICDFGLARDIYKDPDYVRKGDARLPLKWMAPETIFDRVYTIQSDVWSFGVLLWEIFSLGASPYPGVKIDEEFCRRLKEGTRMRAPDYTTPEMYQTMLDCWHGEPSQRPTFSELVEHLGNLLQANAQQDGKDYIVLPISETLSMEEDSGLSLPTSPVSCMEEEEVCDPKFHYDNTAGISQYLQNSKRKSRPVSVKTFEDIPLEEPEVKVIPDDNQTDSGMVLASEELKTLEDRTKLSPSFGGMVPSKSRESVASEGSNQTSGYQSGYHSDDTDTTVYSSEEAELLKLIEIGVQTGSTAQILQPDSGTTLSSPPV
Sequence of Tyrosine-protein kinase JAK2 (O60674 whole entry): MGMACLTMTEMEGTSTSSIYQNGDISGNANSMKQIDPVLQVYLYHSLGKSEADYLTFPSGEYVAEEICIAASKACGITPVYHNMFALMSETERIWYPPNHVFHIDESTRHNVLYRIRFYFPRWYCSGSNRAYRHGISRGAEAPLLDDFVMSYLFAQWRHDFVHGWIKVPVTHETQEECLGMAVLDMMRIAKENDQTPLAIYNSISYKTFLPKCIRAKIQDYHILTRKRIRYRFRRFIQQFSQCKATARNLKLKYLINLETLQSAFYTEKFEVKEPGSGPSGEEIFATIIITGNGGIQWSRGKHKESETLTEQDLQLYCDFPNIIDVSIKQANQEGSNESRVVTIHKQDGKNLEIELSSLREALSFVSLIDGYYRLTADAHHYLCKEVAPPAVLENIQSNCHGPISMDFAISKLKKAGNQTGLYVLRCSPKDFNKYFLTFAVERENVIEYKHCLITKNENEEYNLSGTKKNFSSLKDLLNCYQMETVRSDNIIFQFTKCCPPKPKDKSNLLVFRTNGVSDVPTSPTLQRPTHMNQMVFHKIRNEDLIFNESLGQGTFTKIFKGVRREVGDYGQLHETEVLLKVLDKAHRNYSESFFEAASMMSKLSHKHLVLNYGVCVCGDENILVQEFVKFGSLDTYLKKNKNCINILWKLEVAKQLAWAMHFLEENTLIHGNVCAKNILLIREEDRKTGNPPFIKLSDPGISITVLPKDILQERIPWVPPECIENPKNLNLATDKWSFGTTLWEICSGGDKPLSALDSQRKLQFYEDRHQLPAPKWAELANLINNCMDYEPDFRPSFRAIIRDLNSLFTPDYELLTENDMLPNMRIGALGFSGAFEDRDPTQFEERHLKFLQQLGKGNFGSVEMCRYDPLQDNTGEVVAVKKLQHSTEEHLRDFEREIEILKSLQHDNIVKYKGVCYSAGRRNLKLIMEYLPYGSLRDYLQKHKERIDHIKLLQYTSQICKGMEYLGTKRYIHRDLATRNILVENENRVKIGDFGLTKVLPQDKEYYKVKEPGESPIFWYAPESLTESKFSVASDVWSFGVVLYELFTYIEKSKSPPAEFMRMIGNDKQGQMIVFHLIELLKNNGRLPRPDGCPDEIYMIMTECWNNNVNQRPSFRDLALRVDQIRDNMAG
Sequence of Tyrosine-protein kinase JAK3 (P52333 whole entry): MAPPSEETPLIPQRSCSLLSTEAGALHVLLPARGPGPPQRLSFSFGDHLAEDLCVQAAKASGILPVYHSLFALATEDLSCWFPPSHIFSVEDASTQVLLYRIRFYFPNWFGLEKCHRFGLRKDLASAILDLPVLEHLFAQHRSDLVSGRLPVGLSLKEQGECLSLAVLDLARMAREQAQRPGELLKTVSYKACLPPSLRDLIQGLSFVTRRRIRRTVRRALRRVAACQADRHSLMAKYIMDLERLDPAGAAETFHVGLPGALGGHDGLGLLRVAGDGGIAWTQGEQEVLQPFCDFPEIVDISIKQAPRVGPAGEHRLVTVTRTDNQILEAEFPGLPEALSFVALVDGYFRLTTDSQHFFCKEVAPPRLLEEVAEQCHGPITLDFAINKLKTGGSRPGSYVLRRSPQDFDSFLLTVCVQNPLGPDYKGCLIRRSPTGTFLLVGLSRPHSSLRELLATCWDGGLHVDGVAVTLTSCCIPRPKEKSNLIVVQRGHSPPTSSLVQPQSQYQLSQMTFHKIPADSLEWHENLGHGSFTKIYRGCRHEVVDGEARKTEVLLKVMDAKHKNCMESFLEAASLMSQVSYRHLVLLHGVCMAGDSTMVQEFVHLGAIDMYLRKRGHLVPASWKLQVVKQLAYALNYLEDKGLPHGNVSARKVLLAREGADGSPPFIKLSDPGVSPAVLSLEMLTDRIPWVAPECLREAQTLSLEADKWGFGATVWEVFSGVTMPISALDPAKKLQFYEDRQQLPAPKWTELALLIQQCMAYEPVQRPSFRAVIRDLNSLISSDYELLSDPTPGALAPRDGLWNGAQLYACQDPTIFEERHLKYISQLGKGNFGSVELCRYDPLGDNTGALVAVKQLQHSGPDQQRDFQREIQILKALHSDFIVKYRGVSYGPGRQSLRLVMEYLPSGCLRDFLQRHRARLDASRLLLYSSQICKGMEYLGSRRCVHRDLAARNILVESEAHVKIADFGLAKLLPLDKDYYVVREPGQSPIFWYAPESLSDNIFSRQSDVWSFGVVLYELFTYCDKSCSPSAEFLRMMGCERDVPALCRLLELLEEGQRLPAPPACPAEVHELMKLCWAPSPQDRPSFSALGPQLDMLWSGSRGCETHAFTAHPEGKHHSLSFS
Sequence of Dual specificity mitogen-activated protein kinase kinase 1 (Q02750 whole entry): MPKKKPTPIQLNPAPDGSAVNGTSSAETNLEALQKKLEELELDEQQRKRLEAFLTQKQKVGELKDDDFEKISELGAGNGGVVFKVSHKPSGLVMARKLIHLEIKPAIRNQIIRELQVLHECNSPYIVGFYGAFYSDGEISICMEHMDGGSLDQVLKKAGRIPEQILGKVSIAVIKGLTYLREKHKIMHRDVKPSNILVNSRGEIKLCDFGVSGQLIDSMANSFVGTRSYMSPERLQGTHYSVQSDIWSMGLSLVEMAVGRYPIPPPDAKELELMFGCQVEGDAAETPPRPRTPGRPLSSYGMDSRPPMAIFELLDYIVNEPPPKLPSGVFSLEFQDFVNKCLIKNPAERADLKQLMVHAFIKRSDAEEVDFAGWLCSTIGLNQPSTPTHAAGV

With `O=C1/C(=C\c2cccc(O)c2O)SC(=S)N1Cc1ccccc1`, the AC50 (as a rule, the midpoint of the concentration-response curve, whichever way the signal moves) in assay [1] is 1.26 µM (active).
Still for that read-out and setting: next, `CC(C)(C)c1cc[n+](C2=C([N-]S(=O)(=O)c3cccs3)C(=O)c3ccccc3C2=O)cc1`: 3.18 µM (active).
Turning to `COc1c(-c2nc3ccccc3[nH]2)c(O)cc2oc(C)cc(=O)c12`, the Ki – broadly, a dissociation constant, usually derived from enzyme kinetics or from competition with a known ligand – is > 3.98 µM (inactive) in [2]; 0.631 µM (active) in assay [3]; 2 µM (active) in assay [4]; 0.794 µM (active) in assay [5]; 1.26 µM (active) in assay [6]; 3.98 µM (active) in [7]. For the same compound, the Ki in assay [8] is > 3.98 µM (inactive); in assay [9], 0.0398 µM (active); in [10] it was 2.51 µM (active); in [11] it was 0.398 µM (active); in assay [12], 2.51 µM (active); in assay [13], 3.16 µM (active). Also, the Ki in assay [14] was 0.0794 µM (active); in assay [15], 0.2 µM (active).
With `COC(=O)c1c(N)nc2ccccn12`, the Ki was 63.1 µM (active) in [2]; 31.6 µM (active) in assay [3]; 79.4 µM (active) in assay [4]; 50.1 µM (active) in [5]; 50.1 µM (active) in assay [6]; 25.1 µM (active) in assay [10]. For the same compound, the Ki in [11] is 20 µM (active); in assay [12], 79.4 µM (active); in assay [14], 3.98 µM (active); in assay [15], 39.8 µM (active).
With `Cc1ccc(F)c(NC(=O)Nc2ccc(-c3cccc4[nH]nc(N)c34)cc2)c1` [LINIFANIB], the Ki in assay [5] is > 3.98 µM (inactive); in assay [7], > 5.01 µM (inactive); in [8], > 3.98 µM (inactive); in assay [9] it was > 3.16 µM (inactive); in assay [13] it was 0.631 µM (active); in [15] it was > 2 µM (inactive).
